# Measured values from ChEMBL document CHEMBL3616397, “Voltage-Gated Sodium Channels: Structure, Function, Pharmacology, and Clinical Indications” (J Med Chem, 2015).
# Legend:
# [1] = target: T1, Sodium channel protein type 9 subunit alpha (Homo sapiens, UniProt Q15858); experiment: Inhibition of human NaV1.7 channel by patch clamp electrophysiology assay
# [2] = target: Sodium channel protein type 2 subunit alpha (Rattus norvegicus, UniProt P04775); experiment: Inhibition of rat NaV1.2 channel
# [3] = target: Sodium channel protein type 3 subunit alpha (Rattus norvegicus, UniProt P08104); experiment: Inhibition of rat NaV1.3 channel
# [4] = target: Sodium channel protein type 4 subunit alpha (Rattus norvegicus) (UniProt P15390); experiment: Inhibition of rat NaV1.4 channel at 1 uM relative to control
# [5] = target: NaV1.5 (sodium channel protein type 5 subunit alpha) (Rattus norvegicus, UniProt P15389); experiment: Inhibition of rat NaV1.5 channel at 1 uM relative to control
# [6] = Selectivity ratio of IC50 for rat NaV1.2 channel expressed in Xenopus laevis oocytes to IC50 for mouse NaV1.6 channel expressed in Xenopus laevis oocytes; type: cell-based
# [7] = Selectivity ratio of IC50 for rat NaV1.3 channel expressed in Xenopus laevis oocytes to IC50 for mouse NaV1.6 channel expressed in Xenopus laevis oocytes; type: cell-based
# [8] = Selectivity ratio of IC50 for rat NaV1.4 channel expressed in Xenopus laevis oocytes to IC50 for mouse NaV1.6 channel expressed in Xenopus laevis oocytes; type: cell-based
# [9] = Selectivity ratio of IC50 for human NaV1.7 channel expressed in Xenopus laevis oocytes to IC50 for mouse NaV1.6 channel expressed in Xenopus laevis oocytes; type: cell-based
# [10] = target: Sodium channel protein type 3 subunit alpha (Homo sapiens, UniProt Q9NY46); experiment: Inhibition of human TTX-sensitive NaV1.3 channel expressed in HEK293 cells by patch clamp electrophysiology assay; type: cell-based
# [11] = target: Sodium channel protein type 1 subunit alpha (Homo sapiens, UniProt P35498); experiment: Inhibition of human NaV1.1 channel by patch clamp electrophysiology assay
# [12] = target: Sodium channel protein type 2 subunit alpha (Homo sapiens, UniProt Q99250); experiment: Inhibition of human NaV1.2 channel by patch clamp electrophysiology assay
# [13] = target: Sodium channel protein type 4 subunit alpha (Homo sapiens, UniProt P35499); experiment: Inhibition of human NaV1.4 channel by patch clamp electrophysiology assay
# [14] = target: Sodium channel protein type 5 subunit alpha (Homo sapiens, UniProt Q14524); experiment: Inhibition of human NaV1.5 channel expressed in HEK293 cells by patch clamp electrophysiology assay; type: cell-based
# Sequence of Sodium channel protein type 5 subunit alpha (Q14524 whole entry): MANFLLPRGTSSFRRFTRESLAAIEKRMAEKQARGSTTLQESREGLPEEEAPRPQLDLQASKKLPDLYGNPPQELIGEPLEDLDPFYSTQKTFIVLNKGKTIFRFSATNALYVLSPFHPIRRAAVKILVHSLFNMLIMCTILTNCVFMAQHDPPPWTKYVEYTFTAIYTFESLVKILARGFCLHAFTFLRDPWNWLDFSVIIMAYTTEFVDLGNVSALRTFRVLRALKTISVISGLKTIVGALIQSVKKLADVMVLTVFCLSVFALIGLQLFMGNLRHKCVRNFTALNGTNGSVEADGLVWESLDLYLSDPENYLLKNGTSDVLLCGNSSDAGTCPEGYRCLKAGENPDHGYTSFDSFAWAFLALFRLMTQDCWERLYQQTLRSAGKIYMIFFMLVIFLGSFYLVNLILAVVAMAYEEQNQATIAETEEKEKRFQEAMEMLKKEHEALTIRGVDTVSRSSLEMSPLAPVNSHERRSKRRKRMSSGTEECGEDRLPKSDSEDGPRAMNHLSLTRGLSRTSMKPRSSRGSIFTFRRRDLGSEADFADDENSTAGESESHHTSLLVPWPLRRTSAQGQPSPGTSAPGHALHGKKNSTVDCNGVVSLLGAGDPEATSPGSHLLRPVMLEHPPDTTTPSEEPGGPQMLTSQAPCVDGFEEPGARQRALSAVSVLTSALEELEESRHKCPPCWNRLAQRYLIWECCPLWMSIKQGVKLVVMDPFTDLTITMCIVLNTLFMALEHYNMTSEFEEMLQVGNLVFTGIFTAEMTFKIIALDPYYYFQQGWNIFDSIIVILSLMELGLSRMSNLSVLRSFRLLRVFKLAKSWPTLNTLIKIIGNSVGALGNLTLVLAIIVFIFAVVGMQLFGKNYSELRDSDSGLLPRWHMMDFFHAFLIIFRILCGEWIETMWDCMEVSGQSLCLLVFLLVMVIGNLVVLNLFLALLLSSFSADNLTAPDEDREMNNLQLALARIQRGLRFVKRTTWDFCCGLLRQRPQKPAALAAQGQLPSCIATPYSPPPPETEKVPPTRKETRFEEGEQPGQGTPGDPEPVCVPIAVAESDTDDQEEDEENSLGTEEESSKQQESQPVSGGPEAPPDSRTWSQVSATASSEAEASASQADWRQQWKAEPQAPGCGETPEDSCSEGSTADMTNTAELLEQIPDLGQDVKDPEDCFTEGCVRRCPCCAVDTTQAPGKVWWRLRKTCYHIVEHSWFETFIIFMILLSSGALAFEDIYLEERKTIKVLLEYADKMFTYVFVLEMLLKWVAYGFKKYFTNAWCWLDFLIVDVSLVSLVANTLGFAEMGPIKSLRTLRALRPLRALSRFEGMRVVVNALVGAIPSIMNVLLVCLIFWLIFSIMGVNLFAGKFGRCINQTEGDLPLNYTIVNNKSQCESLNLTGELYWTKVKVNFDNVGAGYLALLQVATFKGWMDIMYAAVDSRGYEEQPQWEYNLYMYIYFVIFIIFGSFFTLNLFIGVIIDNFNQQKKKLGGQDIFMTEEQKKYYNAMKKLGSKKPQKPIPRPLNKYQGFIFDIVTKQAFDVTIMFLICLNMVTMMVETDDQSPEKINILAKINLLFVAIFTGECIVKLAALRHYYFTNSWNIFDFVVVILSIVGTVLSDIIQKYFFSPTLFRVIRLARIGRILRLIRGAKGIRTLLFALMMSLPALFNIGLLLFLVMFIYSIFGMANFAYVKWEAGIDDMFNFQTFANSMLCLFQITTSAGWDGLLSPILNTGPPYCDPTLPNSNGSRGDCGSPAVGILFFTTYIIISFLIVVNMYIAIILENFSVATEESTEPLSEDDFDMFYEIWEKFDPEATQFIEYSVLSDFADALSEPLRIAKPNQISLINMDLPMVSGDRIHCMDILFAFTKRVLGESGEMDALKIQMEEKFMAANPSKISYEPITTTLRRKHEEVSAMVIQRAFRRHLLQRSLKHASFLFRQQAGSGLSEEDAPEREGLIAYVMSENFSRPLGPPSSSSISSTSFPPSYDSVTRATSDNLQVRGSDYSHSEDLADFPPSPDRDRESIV
# [15] = target: Sodium channel protein type 8 subunit alpha (Homo sapiens, UniProt Q9UQD0); experiment: Inhibition of human NaV1.6 channel by patch clamp electrophysiology assay
# [16] = target: Sodium channel protein type 10 subunit alpha (Homo sapiens, UniProt Q9Y5Y9); experiment: Inhibition of human NaV1.8 channel by patch clamp electrophysiology assay
# [17] = target: T1, Sodium channel protein type 9 subunit alpha; experiment: Inhibition of human NaV1.7 channel expressed in HEK293 cells by patch clamp electrophysiology assay; type: cell-based
# [18] = target: Sodium channel protein type 9 subunit alpha (Rattus norvegicus, UniProt O08562); experiment: Inhibition of rat NaV1.7 channel by two-electrode voltage-clamp method
# [19] = target: Sodium channel protein type 1 subunit alpha (Mus musculus, UniProt A2APX8); experiment: Inhibition of mouse NaV1.1 channel by two-electrode voltage-clamp method
# [20] = Inhibition of mouse NaV1.2 channel by two-electrode voltage-clamp method
# [21] = target: Sodium channel protein type 4 subunit alpha (Mus musculus, UniProt Q9ER60); experiment: Inhibition of mouse NaV1.4 channel by two-electrode voltage-clamp method
# [22] = target: Sodium channel protein type 8 subunit alpha (Mus musculus, UniProt Q9WTU3); experiment: Inhibition of mouse NaV1.6 channel by two-electrode voltage-clamp method
# Mus musculus = experiment: Toxicity in mouse administered 15 to 20 mins; type: organism-based; settings: in vivo
# [23] = target: T1, Sodium channel protein type 9 subunit alpha; experiment: Inhibition of human NaV1.7 channel expressed in HEK cells by patch clamp electrophysiology assay; type: cell-based, HEK293
# [24] = target: T1, Sodium channel protein type 9 subunit alpha; experiment: Inhibition of human NaV1.7 channel expressed in HEK293 cells treated for 120 secs by QPatch assay; type: cell-based
# [25] = Toxicity in mouse; type: organism-based; settings: in vivo
# T1 sequence (Q15858 whole entry): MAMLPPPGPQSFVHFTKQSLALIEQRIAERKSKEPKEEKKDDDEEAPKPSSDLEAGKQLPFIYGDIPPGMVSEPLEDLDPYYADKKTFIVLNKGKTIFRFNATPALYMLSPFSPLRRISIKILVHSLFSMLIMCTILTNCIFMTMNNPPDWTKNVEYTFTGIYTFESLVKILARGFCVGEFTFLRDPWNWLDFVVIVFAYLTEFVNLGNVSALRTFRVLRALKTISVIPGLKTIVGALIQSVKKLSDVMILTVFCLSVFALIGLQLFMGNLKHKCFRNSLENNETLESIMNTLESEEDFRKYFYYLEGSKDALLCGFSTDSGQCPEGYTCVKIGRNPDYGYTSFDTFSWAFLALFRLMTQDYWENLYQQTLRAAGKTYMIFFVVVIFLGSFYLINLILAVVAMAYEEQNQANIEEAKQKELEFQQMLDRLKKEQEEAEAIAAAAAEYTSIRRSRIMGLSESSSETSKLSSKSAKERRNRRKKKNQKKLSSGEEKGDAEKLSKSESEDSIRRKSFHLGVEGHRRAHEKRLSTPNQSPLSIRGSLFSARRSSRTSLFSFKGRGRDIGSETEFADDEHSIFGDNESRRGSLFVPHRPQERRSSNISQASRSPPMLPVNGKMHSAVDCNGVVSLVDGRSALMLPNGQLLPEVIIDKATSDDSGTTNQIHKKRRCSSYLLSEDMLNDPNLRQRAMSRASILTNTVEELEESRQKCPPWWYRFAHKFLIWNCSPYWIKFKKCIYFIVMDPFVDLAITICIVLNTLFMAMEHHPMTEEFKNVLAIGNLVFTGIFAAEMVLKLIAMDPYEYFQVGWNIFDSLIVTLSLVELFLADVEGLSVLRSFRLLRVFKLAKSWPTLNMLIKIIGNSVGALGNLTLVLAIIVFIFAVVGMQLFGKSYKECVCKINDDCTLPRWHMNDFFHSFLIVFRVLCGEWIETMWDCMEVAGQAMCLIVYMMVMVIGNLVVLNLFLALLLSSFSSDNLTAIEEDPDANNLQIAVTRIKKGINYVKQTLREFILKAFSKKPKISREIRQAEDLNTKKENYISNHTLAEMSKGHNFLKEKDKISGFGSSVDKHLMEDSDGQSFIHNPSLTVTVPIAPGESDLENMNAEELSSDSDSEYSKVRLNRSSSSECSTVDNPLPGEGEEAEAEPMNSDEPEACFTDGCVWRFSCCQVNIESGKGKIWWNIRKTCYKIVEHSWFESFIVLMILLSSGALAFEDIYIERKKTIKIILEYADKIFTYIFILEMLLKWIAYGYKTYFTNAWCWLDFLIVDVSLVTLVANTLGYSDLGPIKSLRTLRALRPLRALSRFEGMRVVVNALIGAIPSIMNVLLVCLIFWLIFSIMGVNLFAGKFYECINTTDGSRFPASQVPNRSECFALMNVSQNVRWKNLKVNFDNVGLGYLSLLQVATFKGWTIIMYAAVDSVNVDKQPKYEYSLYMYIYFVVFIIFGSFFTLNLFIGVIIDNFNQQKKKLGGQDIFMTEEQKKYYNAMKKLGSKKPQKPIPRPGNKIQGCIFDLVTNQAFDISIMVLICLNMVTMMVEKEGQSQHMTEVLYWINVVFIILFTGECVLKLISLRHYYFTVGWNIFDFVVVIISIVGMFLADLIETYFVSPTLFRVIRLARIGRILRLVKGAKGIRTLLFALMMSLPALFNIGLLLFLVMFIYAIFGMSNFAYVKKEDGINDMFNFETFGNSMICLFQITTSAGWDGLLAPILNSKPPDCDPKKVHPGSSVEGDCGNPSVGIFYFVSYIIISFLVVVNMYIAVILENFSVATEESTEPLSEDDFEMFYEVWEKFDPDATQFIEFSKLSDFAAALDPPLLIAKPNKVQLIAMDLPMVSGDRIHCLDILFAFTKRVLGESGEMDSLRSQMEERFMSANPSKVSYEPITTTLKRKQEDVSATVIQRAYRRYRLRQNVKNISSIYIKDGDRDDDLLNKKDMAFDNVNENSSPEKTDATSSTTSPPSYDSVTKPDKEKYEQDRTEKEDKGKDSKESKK
compound,measurement,setting,value
CC[C@H](C)[C@H](NC(=O)[C@H](CCC(=O)O)NC(=O)[C@H](Cc1ccc(O)cc1)NC(=O)[C@H](CCCCN)NC(=O)[C@H](CS)NC(=O)[C@H](Cc1c[nH]c2ccccc12)NC(=O)[C@H](CCCNC(=N)N)NC(=O)[C@H](Cc1cnc[nH]1)NC(=O)[C@H](CCCCN)NC(=O)[C@H](CCCNC(=N)N)NC(=O)[C@H](CO)NC(=O)[C@H](CS)NC(=O)[C@@H](NC(=O)[C@H](CC(C)C)NC(=O)[C@H](CC(N)=O)NC(=O)[C@H](CO)NC(=O)[C@H](CO)NC(=O)[C@H](CCCCN)NC(=O)[C@H](CS)NC(=O)[C@H](CS)NC(=O)[C@H](CCC(N)=O)NC(=O)[C@H](CC(=O)O)NC(=O)[C@H](CC(N)=O)NC(=O)[C@H](CO)NC(=O)[C@@H]1CCCN1C(=O)[C@H](CC(N)=O)NC(=O)[C@H](CS)NC(=O)CNC(=O)[C@H](CCCCN)NC(=O)CNC(=O)[C@H](Cc1ccccc1)NC(=O)CNC(=O)[C@H](CC(C)C)NC(=O)[C@H](CS)NC(=O)[C@@H](N)CCC(=O)O)C(C)C)C(N)=O,IC50,[1],0.021 µM
same,IC50,[2],0.036 µM
same,IC50,[3],0.375 µM
same,inhibition,[4],7.3%
same,inhibition at 1 µM,[5],0%
N=C1N[C@H]2OC3C4(N1)C2[C@H]1O[C@]3(O)OC([C@H]4O)[C@]1(O)CO,Ratio IC50,[6],161
same,Ratio IC50,[7],44
same,Ratio IC50,[8],127
same,Ratio IC50,[9],163
O=C(Nc1ccc(S(=O)(=O)Nc2nccs2)cc1)C(c1ccccc1)c1ccccc1,IC50,[10],< 0.02 µM
same,IC50,[11],< 0.02 µM
same,IC50,[12],0.24 µM
same,IC50,[13],> 10 µM
same,IC50,[14],> 10 µM
same,IC50,[15],> 10 µM
same,IC50,[16],> 10 µM
same,IC50,[17],> 10 µM
O=S(=O)(Nc1ncns1)c1cc(F)c(OC[C@@H]2CNCC[C@H]2c2ccc(Cl)c(F)c2)cc1F,IC50,[14],> 10 µM
Nc1nc2cc(-c3cc(Cl)ccc3Oc3cc(F)c(S(=O)(=O)Nc4ncns4)cc3F)ccc2[nH]1,IC50,[14],> 10 µM
same,IC50,[17],0.03 µM
N=C(N)NCCC[C@@H]1NC(=O)[C@H](CO)NC(=O)[C@H](Cc2cnc[nH]2)NC(=O)[C@H](CC(=O)O)NC(=O)[C@H](CCCNC(=N)N)NC(=O)[C@@H]2CSSC[C@H](N)C(=O)N[C@H]3CSSC[C@H](NC1=O)C(=O)N[C@H](C(=O)O)CSSC[C@H](NC(=O)[C@H](CC(N)=O)NC3=O)C(=O)N[C@@H](CO)C(=O)N[C@@H](CO)C(=O)N[C@@H](CCCCN)C(=O)N[C@@H](Cc1c[nH]c3ccccc13)C(=O)N2,Kd,[18],0.29 µM
same,Kd,[19],0.29 µM
same,Kd,[20],0.005 µM
same,IC50,[21],0.09 µM
same,IC50,[22],0.24 µM
CC1=CN=C(C)C1C(=O)O[C@@H](C)C1=CC[C@@]23OCCN(C)C[C@@]12C[C@@H](O)[C@]12O[C@@]4(O)CC[C@@]1(C)[C@H](CC=C32)C4 (stereo partly specified),LD50,Mus musculus,0.002 mg/kg
CCCOc1ncccc1-c1cc(C(=O)NS(C)(=O)=O)ccc1Oc1ccc(Cl)cc1,IC50,[23],0.014 µM
CN1CC[C@]2(CC[C@@H](c3cc(-c4cccc(OC(F)(F)F)c4)ccn3)N2)C1=O,IC50,[24],0.251 µM
COc1ccc(C(=O)O[C@H]2CC[C@@]3(C)[C@@H]4CC[C@H]5[C@]6(O)C[C@H](O)[C@@]7(O)[C@@H](CN8C[C@@H](C)CC[C@H]8[C@@]7(C)O)[C@]6(O)C[C@@]53O[C@]24O)cc1OC [VERATRIDINE],LD50,[25],9 mg/kg
Cc1cc(-c2ccc(C(F)(F)F)cc2)nc([C@@H]2CC[C@]3(CCN(C)C3=O)N2)n1,IC50,[24],2 µM
Cc1ccc(OCC(C)C)c(-c2cccc([C@@H]3CC[C@]4(CCN(C)C4=O)N3)c2F)c1,IC50,[24],0.251 µM
